According to ChEMBL document CHEMBL5291721, “A preclinical secondary pharmacology resource illuminates target-adverse drug reaction associations of marketed drugs” (Nat Commun, 2023):

How the values were obtained:
[1] = target: T1, Alpha-1A adrenergic receptor (Homo sapiens, UniProt P35348)
T1 sequence (P35348 whole entry): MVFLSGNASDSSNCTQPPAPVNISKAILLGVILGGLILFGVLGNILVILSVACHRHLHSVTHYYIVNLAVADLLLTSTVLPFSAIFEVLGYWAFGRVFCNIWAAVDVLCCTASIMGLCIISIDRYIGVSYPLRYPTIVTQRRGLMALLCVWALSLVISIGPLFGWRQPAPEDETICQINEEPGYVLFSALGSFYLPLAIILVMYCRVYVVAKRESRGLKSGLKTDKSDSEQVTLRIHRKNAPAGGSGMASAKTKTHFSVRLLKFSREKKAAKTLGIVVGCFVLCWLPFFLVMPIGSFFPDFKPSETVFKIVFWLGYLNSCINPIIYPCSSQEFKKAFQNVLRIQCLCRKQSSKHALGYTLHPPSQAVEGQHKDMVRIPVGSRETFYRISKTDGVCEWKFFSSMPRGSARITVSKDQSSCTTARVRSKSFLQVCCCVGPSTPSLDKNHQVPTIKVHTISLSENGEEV

[2] = target: T2, Alpha-2A adrenergic receptor (Homo sapiens, UniProt P08913); type: functional, cell-based
T2 sequence (P08913 whole entry): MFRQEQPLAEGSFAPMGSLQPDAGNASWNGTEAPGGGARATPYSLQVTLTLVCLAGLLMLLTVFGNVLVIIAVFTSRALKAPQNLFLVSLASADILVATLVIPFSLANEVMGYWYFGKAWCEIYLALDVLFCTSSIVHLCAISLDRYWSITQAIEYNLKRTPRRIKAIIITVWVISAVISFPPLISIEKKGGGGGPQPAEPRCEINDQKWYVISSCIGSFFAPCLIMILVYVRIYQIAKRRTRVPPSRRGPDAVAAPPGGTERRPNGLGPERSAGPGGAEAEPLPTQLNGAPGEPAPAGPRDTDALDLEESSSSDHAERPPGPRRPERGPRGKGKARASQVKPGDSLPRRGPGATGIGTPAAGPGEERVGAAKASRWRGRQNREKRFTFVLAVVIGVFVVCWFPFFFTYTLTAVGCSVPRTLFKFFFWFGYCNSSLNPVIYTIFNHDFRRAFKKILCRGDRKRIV

[3] = target: T3, Cholecystokinin receptor type A (Homo sapiens, UniProt P32238)
T3 sequence (P32238 whole entry): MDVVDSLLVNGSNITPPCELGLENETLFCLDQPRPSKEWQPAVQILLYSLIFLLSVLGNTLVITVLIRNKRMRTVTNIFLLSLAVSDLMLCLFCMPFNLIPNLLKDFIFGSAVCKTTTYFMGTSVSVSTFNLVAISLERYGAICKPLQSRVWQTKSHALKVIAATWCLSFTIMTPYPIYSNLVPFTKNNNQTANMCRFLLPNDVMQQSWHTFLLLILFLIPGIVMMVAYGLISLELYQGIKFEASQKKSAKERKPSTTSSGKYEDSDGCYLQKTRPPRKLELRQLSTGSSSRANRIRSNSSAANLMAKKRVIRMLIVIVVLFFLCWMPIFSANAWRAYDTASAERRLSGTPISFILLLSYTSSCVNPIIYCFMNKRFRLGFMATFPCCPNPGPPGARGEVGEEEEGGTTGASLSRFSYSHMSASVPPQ

[4] = target: T4, Muscarinic acetylcholine receptor M2 (Homo sapiens, UniProt P08172); type: functional, cell-based
T4 sequence (P08172 whole entry): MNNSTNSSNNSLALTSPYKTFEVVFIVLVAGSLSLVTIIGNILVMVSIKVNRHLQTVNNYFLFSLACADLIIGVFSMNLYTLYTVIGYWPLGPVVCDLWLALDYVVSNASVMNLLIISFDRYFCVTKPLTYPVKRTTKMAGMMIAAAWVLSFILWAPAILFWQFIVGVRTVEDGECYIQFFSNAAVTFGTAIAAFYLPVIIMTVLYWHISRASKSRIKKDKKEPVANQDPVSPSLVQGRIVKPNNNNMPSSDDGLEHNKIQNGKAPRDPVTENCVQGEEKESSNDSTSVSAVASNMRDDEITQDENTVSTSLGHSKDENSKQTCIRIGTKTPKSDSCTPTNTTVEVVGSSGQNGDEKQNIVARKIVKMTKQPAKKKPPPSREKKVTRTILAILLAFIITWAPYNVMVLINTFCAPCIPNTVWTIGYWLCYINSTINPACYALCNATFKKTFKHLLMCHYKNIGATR

[5] = target: Neuronal acetylcholine receptor subunit alpha-4 (Homo sapiens, UniProt P43681)
Sequence of Neuronal acetylcholine receptor subunit alpha-4 (P43681 whole entry): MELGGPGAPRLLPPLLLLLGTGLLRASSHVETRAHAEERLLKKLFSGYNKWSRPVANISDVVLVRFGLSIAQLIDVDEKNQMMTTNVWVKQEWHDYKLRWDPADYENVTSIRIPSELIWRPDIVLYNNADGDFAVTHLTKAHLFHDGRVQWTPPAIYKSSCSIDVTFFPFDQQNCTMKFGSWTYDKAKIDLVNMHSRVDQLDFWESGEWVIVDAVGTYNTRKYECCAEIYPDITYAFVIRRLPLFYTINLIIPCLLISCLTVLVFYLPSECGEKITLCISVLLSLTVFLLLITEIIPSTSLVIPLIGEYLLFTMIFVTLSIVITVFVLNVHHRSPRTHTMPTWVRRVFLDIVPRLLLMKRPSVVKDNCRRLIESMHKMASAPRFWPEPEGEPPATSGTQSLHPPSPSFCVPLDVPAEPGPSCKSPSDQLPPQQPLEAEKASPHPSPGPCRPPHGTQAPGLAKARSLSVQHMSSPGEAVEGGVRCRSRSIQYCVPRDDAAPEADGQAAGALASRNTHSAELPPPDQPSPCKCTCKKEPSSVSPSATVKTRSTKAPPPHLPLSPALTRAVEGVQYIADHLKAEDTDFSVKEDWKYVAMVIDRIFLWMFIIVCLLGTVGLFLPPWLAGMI

[6] = target: Gamma-aminobutyric acid receptor subunit alpha-1 (Rattus norvegicus, UniProt P62813); type: functional
Sequence of Gamma-aminobutyric acid receptor subunit alpha-1 (P62813 whole entry): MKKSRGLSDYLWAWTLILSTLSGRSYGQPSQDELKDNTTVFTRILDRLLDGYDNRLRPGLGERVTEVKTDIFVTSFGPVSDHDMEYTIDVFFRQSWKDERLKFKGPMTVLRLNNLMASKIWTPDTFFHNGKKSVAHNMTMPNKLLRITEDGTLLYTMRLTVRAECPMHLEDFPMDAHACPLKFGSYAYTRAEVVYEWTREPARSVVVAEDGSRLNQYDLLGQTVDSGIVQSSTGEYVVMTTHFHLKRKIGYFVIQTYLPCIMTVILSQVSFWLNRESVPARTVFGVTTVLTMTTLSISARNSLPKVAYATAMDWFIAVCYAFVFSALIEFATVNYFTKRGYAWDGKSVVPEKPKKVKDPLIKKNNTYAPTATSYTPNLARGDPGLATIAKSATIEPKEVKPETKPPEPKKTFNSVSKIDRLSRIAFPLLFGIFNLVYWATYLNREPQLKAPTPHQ

[7] = target: Glutamate receptor ionotropic, NMDA 1 (Rattus norvegicus, UniProt P35439)
Note: assay procedure not described here.

| Structure (SMILES) | AC50 [1] | AC50 [2] | AC50 [3] | AC50 [4] | AC50 [5] | AC50 [6] | AC50 [7] |
| --- | --- | --- | --- | --- | --- | --- | --- |
| CCc1ccc(C(=O)C(C)CN2CCCCC2)cc1 (stereo not given) [EPERISONE] | > 30 µM | > 30 µM | > 30 µM | > 30 µM | > 30 µM | > 30 µM | > 30 µM |
| Nc1cc(N2CCCCC2)nc(N)[n+]1[O-] [MINOXIDIL] | > 10 µM | > 10 µM | > 30 µM | > 10 µM | > 10 µM | > 10 µM | > 10 µM |
| CC(C)(C)NCC(O)COc1cccc2c1CC(O)C(O)C2 (stereo not given) [NADOLOL] | > 10 µM | > 10 µM | > 10 µM | > 10 µM | > 10 µM | > 10 µM | > 10 µM |
| CC1=C(CC(=O)O)c2cc(F)ccc2/C1=C\c1ccc([S+](C)[O-])cc1 (stereo not given) | > 10 µM | > 10 µM | > 30 µM | > 10 µM | > 10 µM | > 10 µM | > 10 µM |
| CCC1(C)CC(=O)NC1=O (stereo not given) [ETHOSUXIMIDE] | > 30 µM | > 10 µM | > 10 µM | > 10 µM | > 10 µM | > 10 µM | > 10 µM |
| CC1Cc2ccccc2N1NC(=O)c1ccc(Cl)c(S(N)(=O)=O)c1 (stereo not given) [INDAPAMIDE] | > 10 µM | > 10 µM | > 30 µM | > 10 µM | > 10 µM | > 10 µM | > 10 µM |
| Cc1nnc2n1-c1ccc(Cl)cc1C(c1ccccc1)=NC2 [ALPRAZOLAM] | > 10 µM | > 10 µM | > 30 µM | > 10 µM | > 10 µM | 0.0042 µM | > 10 µM |
| CC1CC(OC(=O)C(O)c2ccccc2)CC(C)(C)C1 (stereo not given) [CYCLANDELATE] | > 10 µM | > 10 µM | > 10 µM | > 10 µM | > 10 µM | > 10 µM | > 10 µM |
| CN(Cc1ccc(C(C)(C)C)cc1)Cc1cccc2ccccc12 [BUTENAFINE] | > 10 µM | > 10 µM | > 10 µM | > 10 µM | > 10 µM | > 10 µM | > 10 µM |
| CCOC(=O)C1=C(C)NC(C)=C(C(=O)OC)C1c1cccc(Cl)c1Cl (stereo not given) [FELODIPINE] | 13 µM | > 10 µM | > 30 µM | > 10 µM | > 10 µM | > 10 µM | > 10 µM |
| Nc1ccc(S(=O)(=O)Nc2ncccn2)cc1 [SULFADIAZINE] | > 10 µM | > 10 µM | > 10 µM | > 10 µM | > 10 µM | > 10 µM | > 10 µM |
| CC(C)CN(C[C@@H](O)[C@H](Cc1ccccc1)NC(=O)O[C@H]1CCOC1)S(=O)(=O)c1ccc(N)cc1 | > 10 µM | > 10 µM | > 30 µM | > 10 µM | > 30 µM | > 10 µM | > 10 µM |
| CCN(C(C)=O)c1cccc(-c2ccnc3c(C#N)cnn23)c1 [ZALEPLON] | > 10 µM | > 10 µM | > 30 µM | > 10 µM | > 30 µM | – | > 10 µM |
| CN1CCC(=C2c3ccccc3CC(=O)c3sccc32)CC1 [KETOTIFEN] | 10.4 µM | > 10 µM | > 10 µM | > 10 µM | > 10 µM | > 10 µM | > 10 µM |
| O=C1CN=C(c2ccccc2Cl)c2cc([N+](=O)[O-])ccc2N1 [CLONAZEPAM] | 11.9 µM | > 10 µM | > 30 µM | > 10 µM | > 10 µM | 0.0025 µM | > 10 µM |
| COc1nc(C)nc(Cl)c1N=C1NCCN1 [MOXONIDINE] | > 30 µM | – | > 30 µM | > 30 µM | > 30 µM | > 30 µM | > 30 µM |
